In US20240382470A1, “Irak Inhibitor for Treating Cytokine Release-Related Conditions Associated With Infection by a Respiratory Virus” (Rigel Pharmaceuticals, Inc., priority 2021, published 2024):
Counter-ions that a name gives are not always drawn.

Legend:
[1] = system: Dendritic cells + T cells + CD3/CD28 beads; test: CRS assay, IL6 ELISA of supernatant; format: cell-based; settings: Homo sapiens, read-out: Dendritic cells + T cells + CD3/CD28 beads IL6* ELISA EC50 (μM)
[2] = system: Dendritic cells + T cells + CD3/CD28 beads; test: CRS assay, IL2 ELISA of supernatant; format: cell-based; settings: Homo sapiens; 1 hour compound pre-incubation, overnight incubation; IL-2 only produced by activated T cells
[3] = system: Shp1fl/fl RosaERT2-Cre/+ mouse model of lung inflammation; settings: throughout the 21 days, control chow or Compound VII-49 chow
Method: ARDS-like disease model is produced by crossing Shp1^fl/fl to Shp1^fl/flRosa^ERT2-CRE/+ mice. Rosa^ERT2-CRE/+ is expressed under a Tamoxifen inducible promoter. When Tamoxifen is administered to Shp1^fl/flRosa^ERT2-CRE/+ mice CRE recombinase is activated resulting in deletion of Shp1 in hematopoietic cells.
Tamoxifen is administered at day 1 for a total of 4 days wherein Tamoxifen is administered twice a day at 200 mg/kg/bid (400 mg/kg/day). […] Mice were euthanized on day 21.
In an effort to generate an ARDS-like disease model, Shp1^fl/fl Rosa^ERT2-CRE/+ obtained from Jackson Laboratories were crossed to Shp1^fl/fl mice. Rosa^ERT2-CRE/+ is under the control of a Tamoxifen inducible promoter. Shp1^fl/fl Rosa^ERT2-CRE/+ mice were administered Tamoxifen to activate CRE recombinase resulting in deletion of Shp1 in all cells that normally express Shp1 (FIG. 1).
Mice were euthanized on day 21.

human ACE2 = human ACE2 (Homo sapiens, UniProt Q9BYF1); settings: cited from earlier work
human ACE2, sequence (Q9BYF1 18-805): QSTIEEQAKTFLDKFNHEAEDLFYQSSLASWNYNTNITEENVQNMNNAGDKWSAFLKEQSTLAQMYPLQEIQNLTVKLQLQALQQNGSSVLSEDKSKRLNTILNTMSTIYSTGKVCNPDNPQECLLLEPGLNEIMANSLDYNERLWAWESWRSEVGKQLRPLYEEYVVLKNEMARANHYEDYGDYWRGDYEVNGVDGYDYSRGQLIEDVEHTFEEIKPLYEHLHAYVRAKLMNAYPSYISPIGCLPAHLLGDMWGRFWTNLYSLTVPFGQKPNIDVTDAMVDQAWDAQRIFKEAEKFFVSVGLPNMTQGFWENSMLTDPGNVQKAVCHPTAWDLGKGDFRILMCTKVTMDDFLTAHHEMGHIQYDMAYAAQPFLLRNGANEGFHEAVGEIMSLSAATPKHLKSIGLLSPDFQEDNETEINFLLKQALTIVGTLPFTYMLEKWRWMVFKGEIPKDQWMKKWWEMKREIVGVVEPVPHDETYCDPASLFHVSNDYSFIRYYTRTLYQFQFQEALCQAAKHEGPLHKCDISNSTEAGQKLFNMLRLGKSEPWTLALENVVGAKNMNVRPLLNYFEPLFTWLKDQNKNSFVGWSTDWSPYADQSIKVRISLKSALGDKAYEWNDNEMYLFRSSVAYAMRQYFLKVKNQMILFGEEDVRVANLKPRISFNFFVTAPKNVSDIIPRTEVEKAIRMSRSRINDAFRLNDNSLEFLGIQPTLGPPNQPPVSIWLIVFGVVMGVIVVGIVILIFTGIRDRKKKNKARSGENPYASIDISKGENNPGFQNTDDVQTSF

With CCO[C@H]1CC[C@H](n2cc(NC(=O)c3csc(-c4cn[nH]c4)n3)c(-c3nc(F)ccc3F)n2)CC1 [VI-176, N-(3-(3,6-difluoropyridin-2-yl)-1-((1r,4r)-4-ethoxycyclohexyl)-1H-pyrazol-4-yl)-2-(1H-pyrazol-4-yl)thiazole-4-carboxamide] the EC50 [1] was 0.195 µM and the EC50 [2] was 6900 nM.

In the case of CCO[C@H]1CC[C@H](n2cc(NC(=O)c3csc(-c4cnn(C(C)OP(=O)(O)O)c4)n3)c(-c3nc(F)ccc3F)n2)CC1 (stereo partly shown) [VII-49, 1-(4-(4-((3-(3,6-difluoropyridin-2-yl)-1-((1r,4r)-4-ethoxycyclohexyl)-1H-pyrazol-4-yl)carbamoyl)thiazol-2-yl)-1H-pyrazol-1-yl)ethyl dihydrogen phosphate tris salt], the mortality [3] is reported as “no mice died”.

For N[C@@H](CCN[C@@H](CCN1CC[C@H]1C(=O)O)C(=O)O)C(=O)O [nicotianamine], the IC50 (human ACE2) is listed as 84 nM.
